Test results: ChEMBL document CHEMBL4359888, “Discovery of aryl-substituted indole and indoline derivatives as RORγt agonists” (Eur J Med Chem, 2019)
Values after ≈ are worked out from the molar mass of the structure shown.

Key:
physchem = conditions: phosphate buffer, pH 7.46
in vitro = conditions: mouse, liver microsomes
[1] = molecular target: T1, Nuclear receptor ROR-gamma (Homo sapiens, UniProt P51449); experiment: Agonist activity at APC-labeled biotinylated RORgammaT LBD (unknown origin) assessed as induction of biotinylated SRC-1 peptide recruitment incubated for 1 hr by dual FRET assay
T1 sequence (P51449 whole entry): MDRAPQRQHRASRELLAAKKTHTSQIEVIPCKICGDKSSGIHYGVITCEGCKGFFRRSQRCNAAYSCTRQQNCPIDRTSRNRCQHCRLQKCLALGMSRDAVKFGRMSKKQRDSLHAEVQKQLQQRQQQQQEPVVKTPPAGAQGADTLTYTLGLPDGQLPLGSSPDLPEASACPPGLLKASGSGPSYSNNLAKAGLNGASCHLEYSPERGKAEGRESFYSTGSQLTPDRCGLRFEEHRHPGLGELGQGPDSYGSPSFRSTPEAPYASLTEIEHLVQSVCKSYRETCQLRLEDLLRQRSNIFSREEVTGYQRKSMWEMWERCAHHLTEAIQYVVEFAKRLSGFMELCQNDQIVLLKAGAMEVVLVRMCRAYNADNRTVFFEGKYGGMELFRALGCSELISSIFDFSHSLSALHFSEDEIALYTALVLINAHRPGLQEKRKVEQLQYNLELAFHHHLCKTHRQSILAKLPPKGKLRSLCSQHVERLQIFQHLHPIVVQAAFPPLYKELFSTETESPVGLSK

[2] = Metabolic stability in mouse liver microsomes assessed as half life of compound at 1 uM and measured for 60 mins in presence of NADPH by HPLC-MS/MS analysis; format: ADME, Microsome
[3] = molecular target: T1, Nuclear receptor ROR-gamma; experiment: Transactivation of human GAL4-fused RORgammaT LBD expressed in human HEK293T cells incubated for 16 to 20 hrs by steady-glo luciferase assay; format: cell-based
[4] = AUC (0 to last) in CD-1 mouse at 5 mg/kg, po measured for 24 hrs by LC-MS/MS analysis; format: ADME, organism-based; set-up: dose 5 mg/kg, route oral, time 0 - last; conditions: in vivo
[5] = Volume of distribution at steady state in CD-1 mouse at 1 mg/kg, iv measured for 24 hrs by LC-MS/MS analysis; format: ADME, organism-based; conditions: in vivo, read-out: Vdss
[6] = AUC (0 to last) in CD-1 mouse at 1 mg/kg, iv measured for 24 hrs by LC-MS/MS analysis; format: ADME, organism-based; set-up: dose 1 mg/kg, route intravenous, time 0 - last; conditions: in vivo
[7] = Cmax in CD-1 mouse at 5 mg/kg, po measured for 24 hrs by LC-MS/MS analysis; format: ADME, organism-based; set-up: dose 5 mg/kg, route oral; conditions: in vivo
[8] = Half life in CD-1 mouse at 5 mg/kg, po measured for 24 hrs by LC-MS/MS analysis; format: ADME, organism-based; conditions: in vivo
[9] = Clearance in CD-1 mouse at 1 mg/kg, iv measured for 24 hrs by LC-MS/MS analysis; format: ADME, organism-based; conditions: in vivo
[10] = Oral bioavailability in CD-1 mouse at 5 mg/kg measured for 24 hrs by LC-MS/MS analysis; format: ADME, organism-based; conditions: in vivo
[11] = Half life in CD-1 mouse at 1 mg/kg, iv measured for 24 hrs by LC-MS/MS analysis; format: ADME, organism-based; conditions: in vivo
[12] = Cmax in CD-1 mouse at 1 mg/kg, iv measured for 24 hrs by LC-MS/MS analysis; format: ADME, organism-based; set-up: dose 1 mg/kg, route intravenous; conditions: in vivo

SMILES: COC(=O)C1=C(C)NC(C)=C(C(=O)OCCN(C)Cc2ccccc2)C1c1cccc([N+](=O)[O-])c1 (stereo not drawn) [NICARDIPINE]
- solubility kinetic at 2 h, 100 µM (physchem): 5.01 µM (≈ 2.4 µg/mL)

SMILES: O=S(=O)(c1cccc(C(F)(F)F)c1)N1CCc2ccc(OCc3c(F)cccc3Cl)cc21
- microsomal CLint at 1 h, 1 µM (in vitro): 482 µL/min/mg
- EC50 [1]: 30.2 nM
- solubility kinetic at 2 h, 100 µM (physchem): 0.08 µM (≈ 0.0389 µg/mL)
- half-life at 1 µM [2]: 2.9 min

SMILES: COc1cc(F)cc(-c2ccc3c(c2)N(S(=O)(=O)c2cccc(C(F)(F)F)c2)C(CC(=O)O)C3)c1 (stereo not drawn)
- EC50 [1]: 39.3 nM

SMILES: O=C(O)CCCC1CN(S(=O)(=O)c2cccc(C(F)(F)F)c2)c2cc(-c3cc(F)cc(OC(F)F)c3)ccc21 (stereo not drawn)
- EC50 [1]: 26.2 nM
- half-life at 1 µM [2]: 34.2 min

SMILES: O=S(=O)(c1cccc(C(F)(F)F)c1)n1ccc2ccc(-c3cc(F)cc(OC(F)F)c3)cc21
- EC50 [1]: 99.4 nM
- half-life at 1 µM [2]: 39.1 min

SMILES: O=C(O)CCc1cc2ccc(-c3cc(F)cc(OC(F)F)c3)cc2n1S(=O)(=O)c1cccc(C(F)(F)F)c1
- EC50 [3]: 1710 nM
- EC50 [1]: 25.5 nM
- half-life at 1 µM [2]: > 145 min

SMILES: O=C(CC1Cc2ccc(-c3cc(F)cc(OC(F)F)c3)cc2N1S(=O)(=O)c1cccc(C(F)(F)F)c1)N1CCOCC1 (stereo not drawn)
- EC50 [1]: 209 nM

SMILES: O=C(O)CC1Cc2ccc(-c3ccc4c(c3)OCO4)cc2N1S(=O)(=O)c1cccc(C(F)(F)F)c1 (stereo not drawn)
- EC50 [1]: 87.4 nM

SMILES: O=C(CC1Cc2ccc(-c3cc(F)cc(OC(F)F)c3)cc2N1S(=O)(=O)c1cccc(C(F)(F)F)c1)N1CC(O)C1 (stereo not drawn)
- EC50 [1]: 244 nM

SMILES: O=C(CC1Cc2ccc(-c3cc(F)cc(OC(F)F)c3)cc2N1S(=O)(=O)c1cccc(C(F)(F)F)c1)N1CC2(COC2)C1 (stereo not drawn)
- EC50 [3]: 752 nM
- EC50 [1]: 47.9 nM
- half-life at 1 µM [2]: 0.7 min

SMILES: O=C(O)CC1Cc2ccc(-c3cc(F)cc(OC(F)F)c3)cc2N1S(=O)(=O)c1cccc(C(F)(F)F)c1 (racemic)
- AUC(0-t) at 24 h [4]: 9120 ng·h/mL
- Vd [5]: 2.09 L/kg
- AUC(0-t) at 24 h [6]: 1710 ng·h/mL
- Cmax [7]: 1400 ng/mL
- EC50 [3]: 247 nM
- half-life [8]: 249 min
- microsomal CLint at 1 h, 1 µM (in vitro): 12.3 µL/min/mg
- EC50 [1]: 20.8 nM
- clearance [9]: 9.55 mL/min/kg
- solubility kinetic at 2 h, 100 µM (physchem): 69.4 µM (≈ 37.9 µg/mL)
- bioavailability [10]: 107%
- half-life [11]: 295 min
- half-life at 1 µM [2]: 113 min
- Cmax [12]: 1640 ng/mL

SMILES: O=C(O)CC1Cc2ccc(-c3cc(F)cc(F)c3)cc2N1S(=O)(=O)c1cccc(C(F)(F)F)c1 (stereo not drawn)
- EC50 [1]: 25.7 nM

SMILES: O=C(O)CCCC1Cc2ccc(-c3cc(F)cc(OC(F)F)c3)cc2N1S(=O)(=O)c1cccc(C(F)(F)F)c1 (stereo not drawn)
- EC50 [3]: 422 nM
- EC50 [1]: 25.2 nM
- half-life at 1 µM [2]: 93.3 min

SMILES: O=C(O)CC1CN(S(=O)(=O)c2cccc(C(F)(F)F)c2)c2cc(-c3cc(F)cc(OC(F)F)c3)ccc21 (stereo not drawn)
- EC50 [1]: 21.8 nM
- half-life at 1 µM [2]: 45.6 min

SMILES: O=S(=O)(c1cccc(C(F)(F)F)c1)n1cnc2ccc(-c3cc(F)cc(OC(F)F)c3)cc21
- EC50 [1]: 122 nM

SMILES: CC(=O)N1CCN(c2ccc(OCC3COC(Cn4ccnc4)(c4ccc(Cl)cc4Cl)O3)cc2)CC1 (stereo not drawn) [KETOCONAZOLE]
- solubility kinetic at 2 h, 100 µM (physchem): 31.1 µM (≈ 16.5 µg/mL)

SMILES: O=C(O)C1CN(C(=O)CC2Cc3ccc(-c4cc(F)cc(OC(F)F)c4)cc3N2S(=O)(=O)c2cccc(C(F)(F)F)c2)C1 (stereo not drawn)
- EC50 [3]: 4050 nM
- EC50 [1]: 49.3 nM
- half-life at 1 µM [2]: 65.9 min

SMILES: O=C(O)CC1Cc2ccc(-c3cccc(OC(F)(F)F)c3)cc2N1S(=O)(=O)c1cccc(C(F)(F)F)c1 (stereo not drawn)
- EC50 [1]: 31.1 nM

SMILES: O=C(O)CCc1cn(S(=O)(=O)c2cccc(C(F)(F)F)c2)c2cc(-c3cc(F)cc(OC(F)F)c3)ccc12
- EC50 [1]: 43.6 nM

SMILES: O=C(O)Cc1cn(S(=O)(=O)c2cccc(C(F)(F)F)c2)c2cc(-c3cc(F)cc(OC(F)F)c3)ccc12
- EC50 [1]: 133 nM

SMILES: O=C(O)c1cc2ccc(-c3cc(F)cc(OC(F)F)c3)cc2n1S(=O)(=O)c1cccc(C(F)(F)F)c1
- EC50 [1]: 74.3 nM

SMILES: O=C(CC1Cc2ccc(-c3cc(F)cc(OC(F)F)c3)cc2N1S(=O)(=O)c1cccc(C(F)(F)F)c1)N1CCS(=O)(=O)CC1 (stereo not drawn)
- EC50 [3]: 322 nM
- EC50 [1]: 43.4 nM
- half-life at 1 µM [2]: 2 min

SMILES: O=C1CN(C(=O)CC2Cc3ccc(-c4cc(F)cc(OC(F)F)c4)cc3N2S(=O)(=O)c2cccc(C(F)(F)F)c2)C1 (stereo not drawn)
- EC50 [1]: 78.8 nM

SMILES: CC(C)Oc1cc(F)cc(-c2ccc3c(c2)N(S(=O)(=O)c2cccc(C(F)(F)F)c2)C(CC(=O)O)C3)c1 (stereo not drawn)
- EC50 [1]: 124 nM

SMILES: O=C(O)C1CCN(C(=O)CC2Cc3ccc(-c4cc(F)cc(OC(F)F)c4)cc3N2S(=O)(=O)c2cccc(C(F)(F)F)c2)CC1 (stereo not drawn)
- EC50 [3]: 5440 nM
- EC50 [1]: 57.1 nM
- half-life at 1 µM [2]: 30.1 min

SMILES: O=C(O)CCCc1cc2ccc(-c3cc(F)cc(OC(F)F)c3)cc2n1S(=O)(=O)c1cccc(C(F)(F)F)c1
- EC50 [1]: 45.3 nM

SMILES: CCOc1cc(F)cc(-c2ccc3c(c2)N(S(=O)(=O)c2cccc(C(F)(F)F)c2)C(CC(=O)O)C3)c1 (stereo not drawn)
- EC50 [1]: 32.9 nM

SMILES: O=C(O)CC1Cc2ccc(-c3cc(F)cc(C(F)(F)F)c3)cc2N1S(=O)(=O)c1cccc(C(F)(F)F)c1 (stereo not drawn)
- EC50 [1]: 41.3 nM

SMILES: O=S(=O)(c1cccc(C(F)(F)F)c1)N1CCc2ccc(-c3cc(F)cc(OC(F)F)c3)cc21
- microsomal CLint at 1 h, 1 µM (in vitro): 121 µL/min/mg
- EC50 [1]: 50.6 nM
- solubility kinetic at 2 h, 100 µM (physchem): 1.48 µM (≈ 0.721 µg/mL)
- half-life at 1 µM [2]: 11.4 min

SMILES: O=C(O)Cc1cc2ccc(-c3cc(F)cc(OC(F)F)c3)cc2n1S(=O)(=O)c1cccc(C(F)(F)F)c1
- EC50 [1]: 125 nM

SMILES: CC(C)(C[C@H]1CN(S(=O)(=O)c2cccc(C(F)(F)F)c2)c2cc(-c3cc(F)cc(OC(F)F)c3)ccc2O1)C(=O)O [CINTIRORGON]
- solubility kinetic at 2 h, 100 µM (physchem): 37.5 µM (≈ 22.6 µg/mL)

SMILES: O=C(O)CC1Cc2ccc(-c3ccc4c(c3)OC(F)(F)O4)cc2N1S(=O)(=O)c1cccc(C(F)(F)F)c1 (stereo not drawn)
- EC50 [1]: 42.6 nM

SMILES: O=C(O)CC1Cc2ccc(-c3cc(F)cc(Cl)c3)cc2N1S(=O)(=O)c1cccc(C(F)(F)F)c1 (stereo not drawn)
- EC50 [1]: 42 nM

SMILES: O=C1CCN(C(=O)CC2Cc3ccc(-c4cc(F)cc(OC(F)F)c4)cc3N2S(=O)(=O)c2cccc(C(F)(F)F)c2)CC1 (stereo not drawn)
- EC50 [1]: 80.4 nM

SMILES: O=C(O)CCCc1cn(S(=O)(=O)c2cccc(C(F)(F)F)c2)c2cc(-c3cc(F)cc(OC(F)F)c3)ccc12
- EC50 [1]: 93.8 nM

SMILES: O=C1CCN(C(=O)CC2Cc3ccc(-c4cc(F)cc(OC(F)F)c4)cc3N2S(=O)(=O)c2cccc(C(F)(F)F)c2)C1 (stereo not drawn)
- EC50 [1]: 52.3 nM

SMILES: O=S(=O)(c1cccc(C(F)(F)F)c1)n1ncc2ccc(-c3cc(F)cc(OC(F)F)c3)cc21
- EC50 [1]: 205 nM

SMILES: O=C(O)CCC1CN(S(=O)(=O)c2cccc(C(F)(F)F)c2)c2cc(-c3cc(F)cc(OC(F)F)c3)ccc21 (stereo not drawn)
- EC50 [1]: 14.6 nM
- half-life at 1 µM [2]: 24.5 min

SMILES: O=C(O)C[C@H]1Cc2ccc(-c3cc(F)cc(OC(F)F)c3)cc2N1S(=O)(=O)c1cccc(C(F)(F)F)c1
- EC50 [1]: 286 nM

SMILES: O=C(O)CC1Cc2ccc(-c3ccc4c(c3)CCO4)cc2N1S(=O)(=O)c1cccc(C(F)(F)F)c1 (stereo not drawn)
- EC50 [1]: 56.8 nM

SMILES: O=C(CC1Cc2ccc(-c3cc(F)cc(OC(F)F)c3)cc2N1S(=O)(=O)c1cccc(C(F)(F)F)c1)N1CCC(O)CC1 (stereo not drawn)
- EC50 [3]: 6040 nM
- EC50 [1]: 106 nM
- half-life at 1 µM [2]: 0.7 min

SMILES: O=C(O)C[C@@H]1Cc2ccc(-c3cc(F)cc(OC(F)F)c3)cc2N1S(=O)(=O)c1cccc(C(F)(F)F)c1
- EC50 [3]: 201 nM
- EC50 [1]: 16.1 nM

SMILES: O=C(O)CCC1Cc2ccc(-c3cc(F)cc(OC(F)F)c3)cc2N1S(=O)(=O)c1cccc(C(F)(F)F)c1 (stereo not drawn)
- EC50 [3]: 2320 nM
- EC50 [1]: 31.3 nM
- half-life at 1 µM [2]: 60.9 min
